US5690954A, “Enhanced uptake drug delivery system having microspheres containing an active drug and a bioavailability improving material” (priority 1987, dated 1997)
Where two headings read alike, the source gives them in different places.

What was measured:
[1] = Bioavailability enhancement by microspheres plus bioavailability increasing material (general statement)
Description: The material selected for these studies has been lysophosphatidylcholine (described above).

[2] = sheep, in vivo, 5 mg/kg
Experimental: Cross-bred (Suffolk and Texel) sheep were divided into groups of 3 and 2. The mean weight of the sheep was about 40 kg.
The animals were not fasted prior to the administration of gentamicin. […] The catheter was removed upon completion of the study. […] The sedation lasted about 3 minutes. The animals that received gentamicin by the IV route were also sedated.
The first group of sheep (n=2) was given 0.25 ml of gentamicin solution (386 mg/ml) (5.0 mg/kg) into each nostril. The second group (n=3) received 0.25 ml of gentamicin solution (386 mg/ml) (5.0 mg/kg) containing 2 mg/ml LPC into each nostril. The third group (n=3) received 5.0 mg/kg gentamicin and 0.2 mg/kg LPC in combination with starch microspheres (1.9 mg gentamicin-/mg starch microspheres). The last group of sheep (n=3) was given 2 mg/kg gentamicin administered intravenously as a solution (40 mg/ml) through the jugular vein. Blood samples (2 ml) were collected through the jugular vein at 0, 8, 16, 24, 32, 45, 60, 90, 120, 180 and 240 min after drug administration. The serum was separated by centrifugation and the samples stored at -20° C. awaiting analysis. No heparin was added to any of the samples. The gentamicin level was determined by the EMIT technique (16).

[3] = cited from earlier work
[4] = parameters: species or system Male Wistar rats; conditions: rat, in vivo
Experimental: The in situ rat model of Hirai et al (14) was used as modified by Fisher et al (15). Male Wistar rats of about 200 g were anaesthetized by intraperitoneal injection of 60 mg/kg of Pentobarbitone (Sagatal, 60 mg/ml). The rats were tracheotomized, the oesophagus sealed and the carotid artery cannulated.
A volume of the gentamicin solution containing 0.5% of the drug with and without added lysophosphatidylcholine (LPC) (0.2%) was instilled into the nasal cavity. Blood samples were withdrawn from the carotid artery at 0, 5, 10, 15, 30, 45, 60 and 120 min after drug administration. The gentamicin level was determined by the EMIT method (16).

[5] = Maximum loading capacity of albumin microspheres; assay type: physicochemical; conditions: emulsion technique
Experimental: The active agent can be incorporated into the microspheres during their formulation or sorbed into/onto the system after preparation.
Albumin microspheres were prepared as described above by an emulsion technique with a stirring speed of 900 rpm and the model drug dissolved in the albumin solution at various concentrations.
Concentrations of 0.5, 2, 4 and 5% w/v Rose bengal were used. […] Due to the solution characteristics of sodium cromoglycate in water the highest concentration that could be used was […]. Thus, microspheres were manufactured from solutions containing 0.5, 1, 2 and 4% w/v sodium cromoglycate.

[6] = Zn-/Na-insulin nasal in rabbits, plasma glucose; assay type: in vivo, New Zealand White rabbits; conditions: rabbit; for shape of plasma glucose curves versus s.c.: intranasal microspheres and LPC 2.5 IU/kg versus 0.6 IU/kg s.c.; for plasma glucose levels: intranasal microspheres and LPC, 2.5 IU/kg; for plasma glucose levels versus simple insulin solution: intranasal solution with 0.2% LPC, about 2.3 IU/kg
Experimental: Preparations of Zn-insulin (mainly hexamer form) or Na-insulin (mainly monomer/dimer forms) were administered nasally to rabbits either as free insulin or as a microsphere delivery system with lysophosphatidylcholine (LPC) as a bioavailability increasing material. The experiments were performed in replicate (n=4).
Non-fasted New Zealand White female rabbits of average weight 3.5 kg were used in this study.
A 40 IU/ml Zn- or Na-human insulin solution was prepared in buffer (1/75M Na2 HPO4) of pH 7.3-7.4. In some experiments 0.2% LPC was added.
A total of 200 μl of the solution (100 μl in each nostril) was administered intranasally equivalent to about 2.3 IU/kg using an Eppendorf pipette.
The rabbits were dosed s.c. with insulin at 0.8 IU/kg or 0.6 IU/kg from a 14 IU/ml or 10 IU/ml aqueous solution, respectively.
The dose of starch microspheres and insulin was fixed at 2.5 mg/kg and 2.5 IU/kg, respectively. The dose of LPC was 0.2 mg/kg. The average weight of the rabbits was 3.5 kg.
25 mg of microspheres were placed in a small glass vial and 250 μl of a 100 IU/ml insulin solution (Na- or Zn-insulin) was added followed by the 2 mg LPC and 250 μl of distilled water. The microspheres were then allowed to stand for 2 h at room temperature in contact with the insulin solution before freeze drying.
Approximately 15 mg of the freeze dried powder from each individual vial was filled into the applicator tubing, and this was stored in a dessicator until use.
Each rabbit was held on its back during, and for 10 second after, the application to ensure the delivery of the powdered formulation. Blood samples of 200 μl and 2 ml for glucose and insulin determination, respectively, were collected from the marginal ear vein at 10 and 5 min prior to the administration and at 5, 15, 30, 45, 60, 90, 120 and 180 min post-administration. […] The blood samples for glucose analysis were kept on crushed ice awaiting immediate analysis.

[7] = Zn-human insulin nasal, in situ rat model, plasma glucose; assay type: in vivo, male Wistar rats
Experimental: The Hirai's in situ model (as modified by Fisher) was used to study the nasal absorption of insulin using non-diabetic male Wistar Rats of 150 g fasted overnight. The rats were anaesthetized with an i.p. injection of 0.25 ml of Pentobarbitone (60 mg/ml).
A 250 IV/ml solution of Zinc (Zn)-human insulin was prepared in buffer (1/75M Na2 HPO4)) of pH 7.3. In some experiments 0.2% of LPC or for comparison 1% Glycodeoxycholate (GDC) were added to the preparation as absorption enhancers. The experiments were performed in replicate (n=4). 10 μl was administered into the nasal cavity equivalent to 16.67 IV/kg (2.5 IV/rat). Blood samples (0.2 ml) were collected into 5 ml fluoride oxalate tubes at 10, 6 and 2 min pre-administration and at 5, 10, 20, 40, 60, 90, 120, 180, 240 and 300 min post-administration. The blood was replaced by saline administered through the jugular vein.

[8] = intranasal, simple solution, versus intravenous; cited from earlier work
[9] = in vivo
[10] = hGH nasal, in situ rat model (ELISA); assay type: in vivo, male Wistar rats
Experimental: For all experiments biosynthetic hGH was used.
As before the experiments were performed using the rat in situ model described by Hirai and modified by Fisher.
Non-fasted male Wistar rats of about 200 g were divided into groups of 4 and anaesthetized using an i.p. injection of 0.35 ml of pentobarbitone (60 mg/ml).
Three different hGH preparations were administered to the rats namely a 10 mg/ml solution of hGH in potassium phosphate buffer (1/75M), pH=7.2, as before with the addition of 0.05% LPC and as before with the addition of 0.5% LPC.
20 μl (1 mg/kg) of either of the three preparations were administered intranasally by means of a plastic tubing.
All experiments were performed in replicate. Blood samples, 20 drops were collected and kept on ice at times 0, 5, 10, 20, 30, 40, 50, 60, 90, 120, 180, 240 and 300 min after the application. The plasma was separated and stored at -20° C. until analysis.

[11] = cited from earlier work; remark: listed apart in the source
[12] = nasal, cited from earlier work
[13] = microspheres with lysophosphatidylcholine
[14] = intranasal solution without enhancer, 1 mg/kg

Molecule: gentamicin
- enhancement concept, outcome ([1]; in vivo): successful
- bioavailability versus IV dose [2]: 57.3%
- peak blood level [2]: 0.4 µg/mL
- nasal absorption ([3]; into the nose, without enhancer): poorly absorbed
- biological availability with bile salts ([3]; nasal, added bile salts): enhanced
- bioavailability [4]: poor bioavailability
- peak level relative to solution alone [4]: five fold greater

Molecule: O=C(O)c1cc(=O)c2c(OCC(O)COc3cccc4oc(C(=O)O)cc(=O)c34)cccc2o1 [sodium cromoglycate]
- maximum loading capacity [5]: 137 μg per mg albumin microspheres

Molecule: O=C([O-])c1c(Cl)c(Cl)c(Cl)c(Cl)c1-c1c2cc(I)c(=O)c(I)c-2oc2c(I)c([O-])c(I)cc12.[Na+].[Na+] [Rose bengal]
- maximum loading capacity [5]: 170 μg per mg albumin microspheres

Molecule: Zn-insulin: Zn-insulin (mainly hexamer form)
- shape of plasma glucose curves versus s.c. [6]: surprisingly similar to the ones obtained for the s.c. administration
- plasma glucose levels [6]: even more drastic decreases
- plasma glucose levels versus simple insulin solution [6]: lowered significantly
- lowering of plasma glucose level ([7]; intranasal simple solution): not effective
- plasma glucose level ([7]; intranasal, with 0.2% LPC): fast and significant drop

Molecule: CC(C)NC[C@H](O)COc1cccc2ccccc12 (racemic) [propanolol]
- plasma levels [8]: identical to intravenous administration

Molecule: hGH: biosynthetic hGH
- enhancement concept, outcome [1, 13]: successful
- bioavailability versus subcutaneous injection [9]: about 20%
- plasma level with microspheres and LPC [9]: increased considerably
- shape of profile ([9]; sc): flatter profile
- nasal absorption [10, 14]: not absorbed at any significant degree
- plasma level peak [10, 14]: about 3.5 ng/ml
- effect of 0.05% LPC on absorption ([10]; intranasal with 0.05% LPC): no effect
- AUC ([10]; intranasal with 0.5% LPC): very significant increase
- plasma level peak ([10]; intranasal with 0.5% LPC, 1 mg/kg): about 57 ng/ml

Molecule: NC(=O)CC[C@@H]1NC(=O)[C@H](Cc2ccccc2)NC(=O)[C@H](Cc2ccc(O)cc2)NC(=O)CCSSC[C@@H](C(=O)N2CCC[C@H]2C(=O)N[C@H](CCCN=C(N)N)C(=O)NCC(N)=O)NC(=O)[C@H](CC(N)=O)NC1=O [DDVAP, reference compound]
- enhancement concept, outcome ([1]; in vivo): successful

Molecule: Na-insulin: Na-insulin (mainly monomer/dimer forms)
- shape of plasma glucose curves versus s.c. [6]: surprisingly similar to the ones obtained for the s.c. administration
- plasma glucose levels [6]: even more drastic decreases
- plasma glucose levels versus simple insulin solution [6]: lowered significantly

Molecule: CC(=O)[C@H]1CC[C@H]2[C@@H]3CCC4=CC(=O)CC[C@]4(C)[C@H]3CC[C@]12C [progesterone]
- time of peak concentration ([11]; nasal route): approximately 6 minutes
- bioavailability, oral ([11]; oral route, compared to IV administration): ~1.2%
- effectiveness, oral ([11]; oral route): largely ineffective

Molecule: calcitonin: calcitonin [reference compound]
- enhancement concept, outcome [1, 13]: successful

Molecule: salmon calcitonin
- plasma calcitonin increase ([12]; in combination with a surfactant): significant increase
- AUC increase ([12]; with surfactant enhancer): 10 fold
- plasma calcitonin ([12]; without enhancer): only trace amounts

B1: CCK: CCK (peptide, UniProt P06307 21-115, looked up)
Cholecystokinin: QPVPPADPAGSGLQRAEEAPRRQLRVSQRTDGESRAHLGALLARYIQQARKAPSGRMSIVKNLQNLDPSHRISDRDYMGWMDFGRRSAEEYEYPS
- enhancement concept, outcome [1, 13]: successful
